In general, MIC refers to the lowest concentration found to suppress growth.

In patent US7534793B2, “Aminopiperidine quinolines and their azaisosteric analogues with antibacterial activity” (priority 2003, dated 2009) one finds MIC data, which are given here for 10 compounds.

A short description of this experiment: MIC of test compounds against various organisms. The class given is cell-based.
Where [1] appears, read: against one or more of the above range of gram positive and gram negative bacteria, read-out: MIC.

Molecules are shown by their SMILES. Where a name gives a salt, the structure may show the parent alone. Read-outs that look alike come from different tables or passages of the source. Some results are limits rather than exact numbers.

In the case of `COc1ccc2nccc([C@@H](O)CN3CCC(NCc4nc5cc(F)c(F)cc5[nH]4)CC3)c2c1.O=C(O)C(=O)O.O=C(O)C(=O)O` [Example 14, (R)-2-{4-[(5,6-Difluoro-1H-benzimidazol-2-ylmethyl)-amino]-piperidin-1-yl}-1-(6-methoxyquinolin-4-yl)-ethanol, dioxalate], the MIC under setting [1] is at most 2 µg/mL. Regarding `COc1ccc2nccc([C@@H](O)CN3CCC(NCc4cc5cccc(O)c5c(=O)[nH]4)CC3)c2c1` [Example 622, (R)-2-{4-[(8-Hydroxy-1-oxo-1,2-dihydro-isoquinolin-3-ylmethyl)-amino]-piperidin-1-yl}-1-(6-methoxyquinolin-4-yl)-ethanol trihydrochloride], the MIC is at most 0.125 µg/mL. Turning to `COc1ccc2nccc(NC(=O)N3CCC(NCc4nc5c(F)cc(F)cc5[nH]4)CC3)c2n1` [Example 403, 4-[(4,6-Difluoro-1H-benzimidazol-2-ylmethyl)-amino]-piperidine-1-carboxylic acid (6-methoxy-[1,5]naphthyridin-4-yl)-amide, oxalate], the MIC under setting [1] is at most 2 µg/mL. For `COc1cc(F)c2nccc(NC(=O)N3CCC(NCc4cnc5c(O)cccc5n4)CC3)c2c1F` [Example 620, 4-[(5-Hydroxy-quinoxalin-2-ylmethyl)amino]-piperidine-1-carboxylic acid (5,8-difluoro-6-methoxy-quinolin-4-yl)-amide oxalate], under setting [1], the MIC is at most 32 µg/mL. On the same count and under the same terms, next, `COc1ccc2nccc([C@@H](O)CN3CCC(NCc4cnc5scnc5c4)CC3)c2c1` [Example 623, (R)-1-(6-Methoxy-quinolin-4-yl)-2-{4-[(thiazolo[5,4-b]pyridin-6-ylmethyl)amino]-piperidin-1-yl}-ethanol dioxalate]: at most 2 µg/mL. The same measure, in the same setting: with `COc1ccc2nc(CNC3CCN(C[C@H](O)c4ccnc5ccc(OC)cc45)CC3)sc2c1` [Example 11, (R)-2-{4-[(6-Methoxy-benzothiazol-2-ylmethyl)-amino]-piperidin-1-yl}-1-(6-methoxy-quinolin-4-yl)-ethanol, dioxalate] the figure was at most 32 µg/mL. For the compound `COc1ccc2nccc([C@@H](O)CN3CCC(NCc4cc5cccnc5n4CC(=O)O)CC3)c2c1` [Example 624, (R)-1-(6-Methoxy-quinolin-4-yl)-2-{4-[(1-carboxymethyl-1H-pyrrolo[2,3-b]pyridine-2-ylmethyl)-amino]-piperidin-1-yl}-ethanol trihydrochloride], the MIC was at most 32 µg/mL. For the compound `COc1ccc2nccc([C@@H](O)CN3CCC(NCc4cc5cc(Br)ccc5[nH]4)CC3)c2c1` [Example 9, (R)-2-{4-[(5-Bromo-1 H-indol-2-ylmethyl)amino]-piperidin-1-yl}-1-(6-methoxy-quinolin-4-yl)-ethanol, dioxalate], the MIC under setting [1] is at most 32 µg/mL.

As to `COc1ccc2nccc(NC(=O)N3CCC(NCc4cc5ccccc5[nH]4)CC3)c2c1` [Example 406, 4-[(1H-Indol-2-ylmethyl)-amino]-piperidine-1-carboxylic acid (6-methoxy-quinolin-4-yl)amide, oxalate], under setting [1], the MIC is at most 2 µg/mL. Regarding `COc1ccc2nccc([C@@H](O)CN3CCC(N(CC(=O)O)Cc4cc5cccnc5n4CC(=O)O)CC3)c2c1` [Example 625, (R)-1-(6-Methoxy-quinolin-4-yl)-2-{4-[carboxymethyl-(1-carboxymethyl-1H-pyrrolo[2,3-b]pyridine-2-ylmethyl)-amino]-piperidin-1-yl}-ethanol dihydrochloride], the MIC was at most 32 µg/mL.
